Data on 18 molecules can be found in USRE47689E1, “Compounds for treating spinal muscular atrophy” (PTC Therapeutics, Inc., priority 2011, dated 2019).

Like-named read-outs stand apart in the source and are kept apart here.

One experiment has as its system Smn protein. Kind of experiment: Smn protein assay in cultured cells (SMN HTRF). The class given is cell-based, human. Conditions: for EC1.5x (concentration giving 1.5-fold Smn protein increase): read-out: EC1.5x for Smn protein expression. In outline:
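Lysates in RIPA with protease inhibitors are incubated overnight at room temperature with HTRF anti-SMN antibodies. EC1.5x is derived from fold increase in ΔF over vehicle.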

Experiment [1] concerns SMN2 minigene (full length SMN2 minigene mRNA containing SMN2 exon 7). Kind of experiment: SMN2 minigene mRNA splicing RT-qPCR assay in cultured cells. The class given is cell-based, human. As to conditions: for EC (1.5-fold): Homo sapiens, HEK293-H, read-out: EC1.5x for production of full length SMN2 mRNA. An outline of the steps:
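HEK293H cells stably carrying the SMN2-A minigene treated 24 h at 37° C with compound (DMSO, 200× stock), then lysed. Multiplex RT-qPCR (SMN primers 0.4 μM final; 40 cycles) measures full-length exon 7-containing minigene mRNA, normalized to GAPDH and to vehicle; EC1.5x derived and binned by stars.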

Setting [2] is: SMA patient fibroblast cells, 48 hours, 7-point concentration data, fold increase relative to vehicle control (SMN HTRF).
Setting [3] is: HEK293H cells stably transfected with SMN2-A minigene, 24 hours, 7-point concentration curve, 1.5-fold relative to vehicle-treated cells.
Setting [4] is: SMA Type 1 patient fibroblast cells (GM03813), 48 hours, 7-point concentration curve, SMN HTRF, concentration producing 1.5 times Smn protein vs DMSO vehicle control.

Turning to `Cc1cn2cc(-c3cc4ccc(C5=CCN(C)CC5)cc4oc3=O)nc2c(C)n1` [Compound 800, 3-(6,8-dimethylimidazo[1,2-a]pyrazin-2-yl)-7-(1-methyl-1,2,3,6-tetrahydropyridin-4-yl)-2H-chromen-2-one], in the experiment on Smn protein, the “maximum fold (Fold) increase of Smn protein” value (“maximum fold (Fold) increase” below) is “***** (key: *: maximum fold increase of ≤1.2; **: fold increase between >1.2 and ≤1.35; ***: fold increase between >1.35 and ≤1.5; ****: fold increase between >1.5 and ≤1.65; *****: fold increase >1.65)”; the EC1.5x (concentration giving 1.5-fold Smn protein increase) was < 300 nM. Further, the EC (1.5-fold) in experiment [1] (24 h) is < 0.1 µM.

`Cc1cn2cc(-c3cc4ccc(N5CC6CC5CN6)cc4oc3=O)cc2cn1` (stereo not shown) [Compound 744, 7-(2,5-diazabicyclo[2.2.1]hept-2-yl)-3-(3-methylpyrrolo[1,2-a]pyrazin-7-yl)-2H-chromen-2-one]: in the experiment with Smn protein (setting [2]), the “maximum fold (Fold) increase” value is “** (fold increase between >1.2 and ≤1.35)”. Further, in experiment [1] (setting [3]), the EC (1.5-fold) was < 0.1 µM.

Take `Cc1cn2cc(-c3cc4ccc(N5CCN[C@H](C)C5)cc4oc3=O)cnc2n1` [Compound 650, 3-(2-methylimidazo[1,2-a]pyrimidin-6-yl)-7-[(3R)-3-methylpiperazin-1-yl]-2H-chromen-2-one]: the EC1.5x (concentration giving 1.5-fold Smn protein increase) in the experiment with Smn protein (setting [4]) is 300 to 1000 nM. The “maximum fold (Fold) increase” value in the experiment on Smn protein (setting [2]) is “**** (fold increase between >1.5 and ≤1.65)”. Further, in experiment [1] (setting [3]), the EC (1.5-fold) is < 0.1 µM.

Regarding `COc1ccc(-c2cc3c(F)cc(N4CCN(C)CC4)cc3oc2=O)cc1OC` [Compound 405, 3-(3,4-dimethoxyphenyl)-5-fluoro-7-(4-methylpiperazin-1-yl)-2H-chromen-2-one], in the experiment on Smn protein (setting [2]), the “maximum fold (Fold) increase” value was “** (fold increase between >1.2 and ≤1.35)”. The EC (1.5-fold) in experiment [1] (setting [3]) was 3 to 30 µM.

`C[C@H]1CN(c2ccc3cc(-c4cc5ccccn5c4)c(=O)oc3c2)CCN1` [Compound 565, 3-(indolizin-2-yl)-7-[(3S)-3-methylpiperazin-1-yl]-2H-chromen-2-one]: the “maximum fold (Fold) increase” value with Smn protein (setting [2]) is reported as “* (maximum fold increase of ≤1.2)”. For the same molecule, in experiment [1] (setting [3]), the EC (1.5-fold) lay in the range of 1 to 3 µM.

In the case of `Cl.O=c1oc2cc(N3CCNCC3)ccc2cc1-c1ccnc(C2CC2)n1` [Compound 278, 3-(2-cyclopropylpyrimidin-4-yl)-7-(piperazin-1-yl)-2H-chromen-2-one hydrochloride], the “maximum fold (Fold) increase” value with Smn protein (setting [2]) is recorded as “* (maximum fold increase of ≤1.2)”. In addition, the EC (1.5-fold) in experiment [1] (setting [3]) fell in the range of 0.3 to 1 µM.

As to `Cc1cn2cc(-c3cc4ccc(C5CCNCC5)cc4oc3=O)ccc2n1` [Cpd 825, 3-(2-methylimidazo[1,2-a]pyridin-6-yl)-7-(piperidin-4-yl)-2H-chromen-2-one], the EC1.5x (concentration giving 1.5-fold Smn protein increase) in the experiment with Smn protein (setting [4]) was < 300 nM. The “maximum fold (Fold) increase” value in the experiment on Smn protein (setting [2]) was “***** (fold increase >1.65)”. Also, in experiment [1] (setting [3]), the EC (1.5-fold) was < 0.1 µM.

In the case of `O=c1oc2cc(N3CCNCC3)ccc2cc1-c1cn2cc(Cl)ccc2n1` [Compound 71, 3-(6-chloroimidazo[1,2-a]pyridin-2-yl)-7-(piperazin-1-yl)-2H-chromen-2-one], in the experiment with Smn protein (setting [2]), the “maximum fold (Fold) increase” value is “** (fold increase between >1.2 and ≤1.35)”. In addition, in experiment [1] (setting [3]), the EC (1.5-fold) was 1 to 3 µM.

As to `CCN1CCN(c2ccc3cc(-c4cn5cc(C)nc(C)c5n4)c(=O)oc3c2)CC1C` (stereo not shown) [Compound 852, 3-(6,8-dimethylimidazo[1,2-a]pyrazin-2-yl)-7-(4-ethyl-3-methylpiperazin-1-yl)-2H-chromen-2-one], in the experiment on Smn protein (setting [4]), the EC1.5x (concentration giving 1.5-fold Smn protein increase) is < 300 nM. Further, in the experiment with Smn protein (setting [2]), the “maximum fold (Fold) increase” value was “**** (fold increase between >1.5 and ≤1.65)”. Besides, the EC (1.5-fold) in experiment [1] (setting [3]) was < 0.1 µM.

Turning to `Cc1cn2cc(-c3cc4ccc(N5C[C@@H](C)N[C@@H](C)C5)cc4oc3=O)nc2c(C)n1` [Compound 517, 3-(6,8-dimethylimidazo[1,2-a]pyrazin-2-yl)-7-[(3R,5S)-3,5-dimethylpiperazin-1-yl]-2H-chromen-2-one], the EC1.5x (concentration giving 1.5-fold Smn protein increase) in the experiment with Smn protein (setting [4]) was < 300 nM. In addition, in the experiment on Smn protein (setting [2]), the “maximum fold (Fold) increase” value is listed as “***** (fold increase >1.65)”. Moreover, the EC (1.5-fold) in experiment [1] (setting [3]) is < 0.1 µM.

Take “7-(2,5-diazabicyclo[2.2.2]oct-2-yl)-3-(pyrazolo[1,5-a]pyridin-2-yl)-2H-chromen-2-one [Compound 191]”: the “maximum fold (Fold) increase” value in the experiment on Smn protein (setting [2]) is “** (fold increase between >1.2 and ≤1.35)”. The “EC1.5x for production of full length SMN2 mRNA” value in experiment [1] (setting [3]) is “*** (between >0.3 μM and ≤1 μM)”.

Regarding `Cc1cn2cc(-c3cc4ccc(N5CCN(C(C)C)[C@H](C)C5)cc4oc3=O)cc2c(C)n1` [Compound 813, 3-(1,3-dimethylpyrrolo[1,2-a]pyrazin-7-yl)-7-[(3R)-3-methyl-4-(propan-2-yl)piperazin-1-yl]-2H-chromen-2-one], the EC1.5x (concentration giving 1.5-fold Smn protein increase) in the experiment on Smn protein (setting [4]) was < 300 nM. Moreover, in the experiment with Smn protein (setting [2]), the “maximum fold (Fold) increase” value was “**** (fold increase between >1.5 and ≤1.65)”. Besides, in experiment [1] (setting [3]), the EC (1.5-fold) was < 0.1 µM.

On to `Cc1cn2cc(-c3cc4ccc(N5CCC(O)CC5)cc4oc3=O)nc2c(C)n1` [Compound 975, 3-(6,8-dimethylimidazo[1,2-a]pyrazin-2-yl)-7-(4-hydroxypiperidin-1-yl)-2H-chromen-2-one], for which the “maximum fold (Fold) increase” value in the experiment with Smn protein (setting [2]) was “*** (fold increase between >1.35 and ≤1.5)”. Moreover, the EC (1.5-fold) in experiment [1] (setting [3]) was 0.3 to 1 µM.

Take `CCN1CCN(c2ccc3cc(-c4cn5cc(C)nc(C)c5n4)c(=O)oc3c2)C[C@@H]1C(C)C` [Compound 810, 3-(6,8-dimethylimidazo[1,2-a]pyrazin-2-yl)-7-[(3S)-4-ethyl-3-(propan-2-yl)piperazin-1-yl]-2H-chromen-2-one]: the EC1.5x (concentration giving 1.5-fold Smn protein increase) with Smn protein (setting [4]) was 1000 to 3000 nM. Also, the “maximum fold (Fold) increase” value in the experiment with Smn protein (setting [2]) was “**** (fold increase between >1.5 and ≤1.65)”. The EC (1.5-fold) in experiment [1] (setting [3]) is 0.3 to 1 µM.

Consider `Cc1csc(-c2cc3ccc(N4CCNCC4)cc3oc2=O)n1` [Compound 37, 3-(4-methyl-1,3-thiazol-2-yl)-7-(piperazin-1-yl)-2H-chromen-2-one], for which the “maximum fold (Fold) increase” value in the experiment on Smn protein (setting [2]) was “** (fold increase between >1.2 and ≤1.35)”. Further, the EC (1.5-fold) in experiment [1] (24 h) is 1 to 3 µM.

For `Cc1cn2cc(-c3cc4ccc(N5CCNCC5)cc4oc3=O)cc(F)c2n1` [Compound 986, 3-(8-fluoro-2-methylimidazo[1,2-a]pyridin-6-yl)-7-(piperazin-1-yl)-2H-chromen-2-one], the EC1.5x (concentration giving 1.5-fold Smn protein increase) with Smn protein (setting [4]) is < 300 nM. Moreover, the “maximum fold (Fold) increase” value with Smn protein (setting [2]) is listed as “***** (fold increase >1.65)”. For the same molecule, the EC (1.5-fold) in experiment [1] (setting [3]) was < 0.1 µM.

Turning to `Cc1cn2cc(-c3cc4ccc(N5CC6(CN(C)C6)C5)cc4oc3=O)nc2c(C)n1` [Compound 972, 3-(6,8-dimethylimidazo[1,2-a]pyrazin-2-yl)-7-(6-methyl-2,6-diazaspiro[3.3]hept-2-yl)-2H-chromen-2-one], in the experiment on Smn protein (setting [4]), the EC1.5x (concentration giving 1.5-fold Smn protein increase) lay within 3000 to 10000 nM. Moreover, the “maximum fold (Fold) increase” value in the experiment with Smn protein (setting [2]) is “*** (fold increase between >1.35 and ≤1.5)”. In addition, the EC (1.5-fold) in experiment [1] (setting [3]) is 0.3 to 1 µM.

`Cc1cn2cc(-c3cc4ccc(N5CCN[C@H](C)C5)cc4oc3=O)ccc2n1` [Compound 652, 3-(2-methylimidazo[1,2-a]pyridin-6-yl)-7-[(3R)-3-methylpiperazin-1-yl]-2H-chromen-2-one]: the EC1.5x (concentration giving 1.5-fold Smn protein increase) in the experiment with Smn protein (setting [4]) is < 300 nM. The “maximum fold (Fold) increase” value in the experiment with Smn protein (setting [2]) is “**** (fold increase between >1.5 and ≤1.65)”. The EC (1.5-fold) in experiment [1] (setting [3]) was < 0.1 µM.
